The structures appear in SMILES notation. Where two headings read alike, the source gives them in different places.

Results on 2 compounds are retold here after patent US9732101B2, “Bioreversible boronates for delivery of molecules into cells” (WISCONSIN ALUMNI RESEARCH FOUNDATION, priority 2012, dated 2017).

Data set [1] in a line: Ka of boronic acids for saccharides by 1H NMR (H2O containing 2% D2O). The format is binding. The following applies: 1H NMR in H2O containing D2O (2% v/v), 0.10M sodium phosphate buffer, pH 7.4, this work. As for the experimental part: (§1) Methodology to determine the values of Ka for boronic acids and saccharides was adapted from work by Hall and coworkers. [13a, 13b]
(§2) A boronic acid (B) and a saccharide (S) were assumed to bind in one modality, B·S:
(§3) The [B·S]/[B] ratio was determined by the integration of aryl protons of the boronic acid.saccharide complex and the free boronic acid. The individual [B], [B·S], and [S] can be calculated from eq. 1-3.
(§4) Each value of Ka arose from at least two independent experiments with freshly prepared solutions, and each experiment consisted of a titration with 6-9 different concentrations.
All NMR spectra were analyzed with Topspin 3.0 software from Bruker AXS. NMR experiments were done in a 0.10 M NaH2PO4 buffer, pH 7.4, containing D2O (2% v/v). ^1H NMR experiments consisted of the first increment of a 2D NOSY with gradients for improved water suppression.
A. Representative Procedure for Making a Phenylboronic Acid Solution NaH2PO4 (3.0 g, 25 mmol) and PBA (phenylboronic acid, 458 mg, 3.75 mmol) were dissolved in distilled, deionized water in a volumetric flask (˜200 mL H2O, 5 mL D2O). The pH was adjusted carefully to 7.4 using 10 M NaOH, and additional water was added for a final volume of 250 mL. Final solutions were 15 mM in the boronic acid (PBA=solution 1; benzoboroxole=solution 2) in 0.10 M sodium phosphate monobasic buffer, pH 7.4, containing D2O (2% v/v).
To a 25-mL volumetric flask, D-fructose (674 mg, 3.75 mmol) and ˜20 mL of solution 1 was added. The solution was adjusted carefully to pH 7.4 by the addition of 10 M NaOH. (The volume of added NaOH was used in the calculation of the boronic acid concentration.) The volume was then increased to 25 mL by adding solution 1. […] The [B·S]/[B] ratio was determined for every concentration as follows. […]
To a 25-mL volumetric flask, D-fructose (674 mg, 3.75 mmol) and ˜20 mL of solution 2 was added. […] The [B·S]/[B] ratio was determined as depicted in FIG. 14. A value for Ka was calculated for every concentration as described above.

Assay in data set [2]: as above
The format is binding. The following applies: 1H NMR in H2O containing D2O (2% v/v); 0.10M sodium phosphate buffer, pH 7.4; this work. Here is the method:
as §1, §2, §3, §4
(§5) All NMR spectra were analyzed with Topspin 3.0 software from Bruker AXS. NMR experiments were done in a 0.10 M NaH2PO4 buffer, pH 7.4, containing D2O (2% v/v). ^1H NMR experiments consisted of the first increment of a 2D NOSY with gradients for improved water suppression. […]
To a 25-mL volumetric flask, D-glucose (2.25 g, 12.5 mmol) and ˜20 mL of solution 1 was added. […] The [B·S]/[B] ratio was determined as depicted in FIG. 15. A value for Ka was calculated for every concentration as described above.
To a 25-mL volumetric flask, D-glucose (2.25 g, 12.5 mmol) and ˜20 mL of solution 2 was added. […] The [B·S]/[B] ratio was determined as depicted in FIG. 16. […] A value for Ka was calculated for every concentration as described above.

Assay in data set [3]: as above
The format is binding. The conditions noted are these: 1H NMR in H2O containing D2O (2% v/v); 0.10M sodium phosphate buffer, pH 7.4; this work. Here is the method: as §1, §2, §3, §4, §5
To a […] volumetric flask, Neu5Ac (1.53 g, 5.0 mmol) and ˜20 mL of solution 1 was added. […] The [B·S]/[B] ratio was determined as depicted in FIG. 17. A value for Ka was calculated for every concentration as described above.
To a […] volumetric flask, Neu5Ac (1.56 g, […]) and ˜20 mL of solution 2 was added. […] The Ka value was calculated for every concentration as previously described. The [B·S]/[B] ratio was determined as illustrated in FIGS. 18 and 19. […] A value for Ka was calculated for every concentration as described above.
The source holds these as a separate data set.

For data set [4] the following is noted: Competition with alizarin red S; 0.10M sodium phosphate buffer, pH 7.4; refs [b], [e]; cited from earlier work.
The conditions of data set [5]: 1H NMR in D2O (100% v/v); 0.10M sodium phosphate buffer, pH 7.4; ref [c]; cited from earlier work.
The conditions of data set [6]: 1H NMR in D2O (100% v/v); 0.10M sodium phosphate buffer, pH 7.4; ref [c]; cited from earlier work. The source holds these as a separate data set.
For data set [7] the following is noted: ref 13b; cited from earlier work.
For data set [8] the following is noted: Competition with alizarin red S; 0.10M sodium phosphate buffer, pH 7.4; ref [b]; cited from earlier work.
The conditions of data set [9]: Competition with alizarin red S; 0.10M sodium phosphate buffer, pH 7.4; ref [b]; cited from earlier work. The source holds these as a separate data set.
For data set [10] the following is noted: 11B NMR in H2O/D2O/MeOH mixture; ref [d]; cited from earlier work.

On to `OCc1ccccc1B(O)O` [Benzoboroxole, 2-hydroxymethylphenylboronic acid], for which the “Ka for D-fructose” value in [1] was 336 ± 43 M⁻¹; in data set [1] (listed as benzoxaborole) it was 336 M⁻¹; in [5], 606 M⁻¹. Also, the “Ka for D-glucose” value in data set [2] was 28 ± 4 M⁻¹; in data set [4] it was 31 M⁻¹; in [6], 17 M⁻¹. The “Ka for Neu5Ac” value in [3] came to 43 ± 5 M⁻¹. Besides, in [7], the “pKa of the HOB” value is on record as 7.2.

As to `OB(O)c1ccccc1` [PBA, Phenylboronic acid], the figures for the “Ka for D-fructose” value in [1], in [8] and in [5] were 128 ± 20 M⁻¹, 160 M⁻¹ and 79 M⁻¹, respectively. For the same compound, the “Ka for D-glucose” value was 5 ± 1 M⁻¹ in data set [2], 4.6 M⁻¹ in data set [4] and 0 M⁻¹ in data set [6]. Further, the “Ka for Neu5Ac” value is 13 ± 1 M⁻¹ in data set [3], 21 M⁻¹ in [9] and 11.6 ± 1.9 M⁻¹ in data set [10].
